Assay results from ChEMBL document CHEMBL1145883, “Lysine sulfonamides as novel HIV-protease inhibitors: optimization of the Nepsilon-acyl-phenyl spacer” (Bioorg Med Chem Lett, 2003).

Experiments:
[1] = target: Human immunodeficiency virus type 1 protease (Human immunodeficiency virus 1, UniProt Q72874); assay: Inhibitory activity against HIV-1 protease
[2] = tested on: Human immunodeficiency virus 1; assay: Antiviral activity; assay type: functional, organism-based

Cc1ccc(S(=O)(=O)N(CC(C)C)[C@@H](CCCCNC(=O)/C=C/c2ccccc2)C(=O)O)cc1 was tested, and the Ki [1] was over 300 nM.
In the case of Cc1ccc(S(=O)(=O)N(CC(C)C)[C@H](CO)CCCCNC(=O)CN(Cc2cccc(N)c2)c2ccccc2)cc1, the Ki [1] is reported as 7.6 nM and the EC50 [2] is reported as 3000 nM.
With Cc1ccc(S(=O)(=O)N(CC(C)C)[C@@H](CCCCNC(=O)N(C)Cc2ccccc2)C(=O)O)cc1 the Ki [1] was 55 nM.
Cc1ccc(S(=O)(=O)N(CC(C)C)[C@@H](CCCCNC(=O)C(=O)Cc2ccccc2)C(=O)O)cc1 was tested, and the Ki [1] was 14 nM.
Work on Cc1ccc(S(=O)(=O)N(CC(C)C)[C@H](CO)CCCCNC(=O)CN(c2ccccc2)C(C)C)cc1 yielded a Ki [1] of 16 nM and an EC50 [2] of 1100 nM.
Cc1ccc(S(=O)(=O)N(CC(C)C)[C@@H](CCCCNC(=O)C2CC2c2ccccc2)C(=O)O)cc1 (stereo partly specified) gave a Ki [1] of over 300 nM.
In the case of Cc1ccc(S(=O)(=O)N(CC(C)C)[C@@H](CCCCNC(=O)OCc2ccccc2)C(=O)O)cc1, the Ki [1] is reported as over 300 nM.
With CC(C)CN([C@H](CO)CCCCNC(=O)CN(Cc1ccc(F)cc1)c1ccccc1)S(=O)(=O)c1ccc(N)cc1 the Ki [1] was 2.3 nM and the EC50 [2] was 1000 nM.
Molecule Cc1ccc(S(=O)(=O)N(CC(C)C)[C@@H](CCCCNC(=O)CS(=O)(=O)c2ccccc2)C(=O)O)cc1 has a Ki [1] of 20 nM.
For CC(C)CN([C@H](CO)CCCCNC(=O)CN(Cc1ccccc1F)c1ccccc1)S(=O)(=O)c1ccc(N)cc1, the Ki [1] was 2.3 nM and the EC50 [2] was 2200 nM.
CC(C)CN([C@H](CO)CCCCNC(=O)CN(Cc1cccc(F)c1)c1ccccc1)S(=O)(=O)c1ccc(N)cc1 showed a Ki [1] of 1.1 nM and an EC50 [2] of 1100 nM.
COc1ccc(CN(CC(=O)NCCCC[C@@H](CO)N(CC(C)C)S(=O)(=O)c2ccc(N)cc2)c2ccccc2)cc1 was tested, and the Ki [1] was 2.4 nM.
For Cc1ccc(S(=O)(=O)N(CC(C)C)[C@@H](CCCCNC(=O)C(c2ccccc2)c2ccccc2)C(=O)O)cc1, the Ki [1] was 171 nM.
Work on Cc1ccc(S(=O)(=O)N(CC(C)C)[C@@H](CCCCNC(=O)CN(C)c2ccccc2)C(=O)O)cc1 yielded a Ki [1] of 12 nM.
Cc1ccc(S(=O)(=O)N(CC(C)C)[C@@H](CCCCNC(=O)[C@@H](O)Cc2ccccc2)C(=O)O)cc1 showed a Ki [1] of 6.2 nM.
COc1ccc(CN(CC(=O)NCCCC[C@@H](CO)N(CC(C)C)S(=O)(=O)c2ccc(N)cc2)c2ccccc2)cc1OC showed a Ki [1] of 2.9 nM and an EC50 [2] of 366 nM.
Cc1ccc(S(=O)(=O)N(CC(C)C)[C@@H](CCCCNC(=O)C(Cc2ccccc2)C(C)(C)C)C(=O)O)cc1 (stereo partly specified) showed a Ki [1] of over 300 nM.
Cc1ccc(S(=O)(=O)N(CC(C)C)[C@@H](CCCCNC(=O)CSc2ccccc2)C(=O)O)cc1 gave a Ki [1] of 18 nM.
In the case of CC(C)CN([C@H](CO)CCCCNC(=O)CN(Cc1ccc([N+](=O)[O-])cc1)c1ccccc1)S(=O)(=O)c1ccc(N)cc1, the Ki [1] is reported as 0.59 nM and the EC50 [2] is reported as 540 nM.
CC(C)CN([C@H](CO)CCCCNC(=O)CN(Cc1ccccc1[N+](=O)[O-])c1ccccc1)S(=O)(=O)c1ccc(N)cc1 gave a Ki [1] of 1.5 nM and an EC50 [2] of 341 nM.
CC(C)CN([C@H](CO)CCCCNC(=O)CN(Cc1ccccc1)c1ccccc1)S(=O)(=O)c1ccc(N)cc1 showed a Ki [1] of 2.4 nM.
Cc1ccc(S(=O)(=O)N(CC(C)C)[C@@H](CCCCNC(=O)Cc2ccccc2)C(=O)O)cc1 was tested, and the Ki [1] was over 300 nM.
Work on Cc1ccc(S(=O)(=O)N(CC(C)C)[C@H](CO)CCCCNC(=O)CN(c2ccccc2)c2ccccc2)cc1 yielded a Ki [1] of 12 nM and an EC50 [2] of 6700 nM.
CC(C)CN([C@H](CO)CCCCNC(=O)CN(Cc1cccc([N+](=O)[O-])c1)c1ccccc1)S(=O)(=O)c1ccc(N)cc1 showed a Ki [1] of 1.2 nM and an EC50 [2] of 339 nM.
COc1ccc(CN(CC(=O)NCCCC[C@@H](CO)N(CC(C)C)S(=O)(=O)c2ccc(C)cc2)c2ccccc2)cc1 was tested, and the Ki [1] was 7.3 nM and the EC50 [2] was over 10000 nM.
Cc1ccc(S(=O)(=O)N(CC(C)C)[C@@H](CCCCNC(=O)CCCc2ccccc2)C(=O)O)cc1 was tested, and the Ki [1] was over 300 nM.
Cc1ccc(S(=O)(=O)N(CC(C)C)[C@@H](CCCCNC(=O)COc2ccccc2)C(=O)O)cc1 showed a Ki [1] of 18 nM.
Work on Cc1ccc(S(=O)(=O)N(CC(C)C)[C@H](CO)CCCCNC(=O)CN(Cc2cccc([N+](=O)[O-])c2)c2ccccc2)cc1 yielded a Ki [1] of 1.4 nM and an EC50 [2] of 730 nM.
For Cc1ccc(S(=O)(=O)N(CC(C)C)[C@@H](CCCCNC(=O)CNc2ccccc2)C(=O)O)cc1, the Ki [1] was 7.8 nM.
With Cc1ccc(S(=O)(=O)N(CC(C)C)[C@H](CO)CCCCNC(=O)CN(CCc2ccccc2)c2ccccc2)cc1 the Ki [1] was 52 nM and the EC50 [2] was over 10000 nM.
For Cc1ccc(S(=O)(=O)N(CC(C)C)[C@@H](CCCCNC(=O)[C@@H](N)Cc2ccccc2)C(=O)O)cc1, the Ki [1] was 1.5 nM.
Cc1ccc(S(=O)(=O)N(CC(C)C)[C@@H](CCCCNC(=O)N(Cc2ccccc2)Cc2ccccc2)C(=O)O)cc1 was tested, and the Ki [1] was 8 nM.
COc1cccc(CN(CC(=O)NCCCC[C@@H](CO)N(CC(C)C)S(=O)(=O)c2ccc(C)cc2)c2ccccc2)c1OC was tested, and the Ki [1] was 2.4 nM and the EC50 [2] was 760 nM.
Cc1ccc(S(=O)(=O)N(CC(C)C)[C@@H](CCCCNC(=O)NCc2ccccc2)C(=O)O)cc1 showed a Ki [1] of 32 nM.
For Cc1ccc(S(=O)(=O)N(CC(C)C)[C@@H](CCCCNC(=O)c2ccccc2)C(=O)O)cc1, the Ki [1] was over 300 nM.
Molecule COc1cccc(CN(CC(=O)NCCCC[C@@H](CO)N(CC(C)C)S(=O)(=O)c2ccc(N)cc2)c2ccccc2)c1OC has an EC50 [2] of 340 nM.
Cc1ccc(S(=O)(=O)N(CC(C)C)[C@H](CO)CCCCNC(=O)CN(Cc2ccccc2)c2ccccc2)cc1 was tested, and the Ki [1] was 7.6 nM and the EC50 [2] was 4200 nM.
With Cc1ccc(S(=O)(=O)N(CC(C)C)[C@@H](CCCCNC(=O)CCc2ccccc2)C(=O)O)cc1 the Ki [1] was 6.9 nM.
Work on COc1ccc(CN(CC(=O)NCCCC[C@@H](CO)N(CC(C)C)S(=O)(=O)c2ccc(C)cc2)c2ccccc2)cc1OC yielded a Ki [1] of 3.5 nM and an EC50 [2] of 1300 nM.
With Cc1ccc(S(=O)(=O)N(CC(C)C)[C@H](CO)CCCCNC(=O)CN(Cc2ccccc2[N+](=O)[O-])c2ccccc2)cc1 the Ki [1] was 3.9 nM and the EC50 [2] was 3500 nM.
For Cc1ccc(S(=O)(=O)N(CC(C)C)[C@@H](CCCCNC(=O)CN(Cc2ccccc2)c2ccccc2)C(=O)O)cc1, the Ki [1] was 0.72 nM.
With CC(C)CN([C@H](CO)CCCCNC(=O)CN(Cc1cccc(N)c1)c1ccccc1)S(=O)(=O)c1ccc(N)cc1 the Ki [1] was 6.9 nM and the EC50 [2] was 524 nM.
With CN[C@@H](Cc1ccccc1)C(=O)NCCCC[C@@H](C(=O)O)N(CC(C)C)S(=O)(=O)c1ccc(C)cc1 the Ki [1] was 2.1 nM.
